Experimental data as given in US6627648B1, “Pharmaceutical compositions and methods for use” (Targacept, Inc., priority 1999, dated 2003).

Assays:
[1] = target: T1, muscle-type nicotinic acetylcholine receptors (Homo sapiens, UniProt P02708+P07510+Q07001); assay: Determination of interaction with muscle receptors; type: cell-based; conditions: maximal activation as percentage of maximal activation induced by (S)-(-)-nicotine; for Emax: read-out: effect at muscle sites (Emax)
T1 construct: endogenous in cells; host or cells: TE671/RD (own knowledge of the cited US 5,597,919)
Description: (§1) The determination of the interaction of the compounds with muscle receptors was carried out in accordance with the techniques described in U.S. Pat. No. 5,597,919 to Dull et al. The maximal activation for individual compounds (Emax) was determined as a percentage of the maximal activation induced by (S)-(−)-nicotine. Reported Emax values represent the amount released relative to (S)-(−)-nicotine on a percentage basis. […] Such preferable compounds have the capability to activate human CNS receptors without activating muscle-type nicotinic acetylcholine receptors. Thus, there is provided a therapeutic window for utilization in the treatment of CNS disorders. […] The compounds begin to cause muscle effects only when employed in amounts of many times those required to activate dopamine release.

[2] = test system: ganglia-type nicotinic acetylcholine receptors; assay: Determination of interaction with ganglion receptors; type: cell-based; conditions: maximal activation as percentage of maximal activation induced by (S)-(-)-nicotine
Description: as §1, with “ganglionic” for “muscle”, “ganglia-type” for “muscle-type”, “cause” for “cause muscle”, “effects at ganglia” for “effects”

[3] = target: CNS nicotinic receptors (Rattus norvegicus, UniProt P09483+P12390); assay: Determination of binding to relevant receptor sites; conditions: inhibition constants calculated from IC50 values by the method of Cheng et al.
Description: Binding of the compounds to relevant receptor sites was determined in accordance with the techniques described in U.S. Pat. No. 5,597,919 to Dull et al. Inhibition constants (Ki values), reported in nM, were calculated from the IC50 values using the method of Cheng et al., Biochem, Pharmacol. 22:3099 (1973).

T1 sequence (P02708 21-457): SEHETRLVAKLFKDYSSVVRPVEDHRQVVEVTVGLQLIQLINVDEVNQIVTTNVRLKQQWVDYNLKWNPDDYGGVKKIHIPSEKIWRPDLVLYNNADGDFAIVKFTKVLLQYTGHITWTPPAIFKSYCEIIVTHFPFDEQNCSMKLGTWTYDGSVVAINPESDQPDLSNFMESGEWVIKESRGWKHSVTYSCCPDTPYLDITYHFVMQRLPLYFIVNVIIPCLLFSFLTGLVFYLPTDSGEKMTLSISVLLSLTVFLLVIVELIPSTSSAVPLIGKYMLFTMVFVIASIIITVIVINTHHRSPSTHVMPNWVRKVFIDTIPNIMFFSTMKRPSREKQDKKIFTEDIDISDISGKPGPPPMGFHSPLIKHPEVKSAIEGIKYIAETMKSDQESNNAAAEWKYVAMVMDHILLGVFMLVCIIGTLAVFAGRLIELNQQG
T1 sequence (P11230 24-501 partner): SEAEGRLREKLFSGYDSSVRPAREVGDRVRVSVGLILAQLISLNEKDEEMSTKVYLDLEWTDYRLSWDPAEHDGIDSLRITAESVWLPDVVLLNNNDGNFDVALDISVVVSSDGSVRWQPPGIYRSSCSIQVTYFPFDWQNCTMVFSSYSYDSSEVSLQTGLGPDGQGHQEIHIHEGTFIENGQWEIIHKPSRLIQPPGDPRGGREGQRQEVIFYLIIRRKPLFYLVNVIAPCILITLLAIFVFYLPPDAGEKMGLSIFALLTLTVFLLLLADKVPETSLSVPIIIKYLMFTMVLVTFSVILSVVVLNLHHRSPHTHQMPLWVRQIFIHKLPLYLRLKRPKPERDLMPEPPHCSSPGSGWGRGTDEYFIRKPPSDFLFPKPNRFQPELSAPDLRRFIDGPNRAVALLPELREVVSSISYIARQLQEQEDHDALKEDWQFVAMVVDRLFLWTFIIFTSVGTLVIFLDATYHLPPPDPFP
T1 sequence (Q07001 22-517): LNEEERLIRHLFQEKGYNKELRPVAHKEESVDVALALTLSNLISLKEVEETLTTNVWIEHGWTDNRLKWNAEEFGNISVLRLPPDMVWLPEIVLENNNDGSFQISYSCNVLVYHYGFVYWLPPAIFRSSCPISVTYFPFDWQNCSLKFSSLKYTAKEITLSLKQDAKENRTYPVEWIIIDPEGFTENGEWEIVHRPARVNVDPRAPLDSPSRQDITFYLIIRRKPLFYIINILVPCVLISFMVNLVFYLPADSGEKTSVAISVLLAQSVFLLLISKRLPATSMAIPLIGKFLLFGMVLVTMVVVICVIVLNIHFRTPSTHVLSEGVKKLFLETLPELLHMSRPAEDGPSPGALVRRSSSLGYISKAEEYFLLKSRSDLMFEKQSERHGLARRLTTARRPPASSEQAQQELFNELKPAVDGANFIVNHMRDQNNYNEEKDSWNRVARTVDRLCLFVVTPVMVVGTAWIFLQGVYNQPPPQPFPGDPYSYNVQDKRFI
T1 sequence (P07510 23-517): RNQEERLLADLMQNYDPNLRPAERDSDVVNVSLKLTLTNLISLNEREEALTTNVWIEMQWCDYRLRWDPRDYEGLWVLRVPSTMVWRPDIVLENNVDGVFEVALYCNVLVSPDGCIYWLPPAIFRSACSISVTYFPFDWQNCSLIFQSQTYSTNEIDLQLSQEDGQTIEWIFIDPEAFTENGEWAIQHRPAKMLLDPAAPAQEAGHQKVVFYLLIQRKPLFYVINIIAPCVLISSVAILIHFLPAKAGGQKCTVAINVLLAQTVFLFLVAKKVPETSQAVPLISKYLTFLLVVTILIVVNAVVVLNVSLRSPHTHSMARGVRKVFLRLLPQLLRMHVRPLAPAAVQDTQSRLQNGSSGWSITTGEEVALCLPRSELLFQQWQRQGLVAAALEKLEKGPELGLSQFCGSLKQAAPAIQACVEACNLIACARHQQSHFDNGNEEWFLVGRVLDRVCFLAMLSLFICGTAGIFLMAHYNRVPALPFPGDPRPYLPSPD
Sequence of CNS nicotinic receptors (P09483 31-630): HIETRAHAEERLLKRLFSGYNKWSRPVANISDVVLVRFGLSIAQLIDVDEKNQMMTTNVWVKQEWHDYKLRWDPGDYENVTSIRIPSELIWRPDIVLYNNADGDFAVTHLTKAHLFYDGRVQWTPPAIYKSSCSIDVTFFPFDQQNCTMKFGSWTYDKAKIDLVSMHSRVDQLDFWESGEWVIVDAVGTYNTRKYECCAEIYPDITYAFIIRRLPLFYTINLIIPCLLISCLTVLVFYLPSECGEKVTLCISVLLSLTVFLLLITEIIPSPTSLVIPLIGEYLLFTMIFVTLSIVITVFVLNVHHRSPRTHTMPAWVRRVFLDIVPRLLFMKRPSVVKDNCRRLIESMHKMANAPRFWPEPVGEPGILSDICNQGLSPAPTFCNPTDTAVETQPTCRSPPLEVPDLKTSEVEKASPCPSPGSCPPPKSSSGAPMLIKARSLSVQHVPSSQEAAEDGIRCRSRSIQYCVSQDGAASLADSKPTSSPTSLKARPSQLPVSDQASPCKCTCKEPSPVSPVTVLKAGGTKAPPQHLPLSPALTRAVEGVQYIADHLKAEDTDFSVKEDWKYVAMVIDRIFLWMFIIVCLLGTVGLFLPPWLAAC
Sequence of CNS nicotinic receptors (P12390 25-500): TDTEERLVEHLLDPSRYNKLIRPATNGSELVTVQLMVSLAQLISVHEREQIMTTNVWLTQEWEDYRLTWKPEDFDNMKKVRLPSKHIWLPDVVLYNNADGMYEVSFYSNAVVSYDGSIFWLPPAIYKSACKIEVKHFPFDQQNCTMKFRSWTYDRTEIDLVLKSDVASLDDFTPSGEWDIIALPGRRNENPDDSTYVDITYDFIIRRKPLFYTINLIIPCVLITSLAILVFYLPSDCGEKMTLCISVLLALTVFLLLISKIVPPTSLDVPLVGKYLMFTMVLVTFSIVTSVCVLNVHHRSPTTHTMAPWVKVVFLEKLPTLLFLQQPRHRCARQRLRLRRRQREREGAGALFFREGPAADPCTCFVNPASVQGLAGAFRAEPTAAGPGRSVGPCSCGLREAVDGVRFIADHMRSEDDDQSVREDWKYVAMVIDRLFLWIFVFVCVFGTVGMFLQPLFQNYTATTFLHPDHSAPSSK

Row | Molecule | effect at muscle sites (Emax) [1] [%] | effect at ganglia sites (Emax) [2] [%] | Emax [1] [%] | Ki [3] [µM]
1 | Methyl(3-(6-methyl(3-pyridyloxy))propyl)amine Hemigalactarate [Example 20] | 0 |  |  | 
2 | Cl.Cl.c1cncc(OC2CCNCC2)c1 [Example 35, 3-(4-Piperidinyloxy)pyridine dihydrochloride] |  | 9 | 16 | 
3 | (3-(5-Chloro(3-pyridyloxy))propyl)methylamine Hemigalactarate [Example 16] | 16 | 7 |  | 
4 | 3-(5-Chloro-3-pyridyloxy)propylamine Hemigalactarate [Example 15] | 0 | 4 |  | 
5 | Methyl(3-(5-isopropoxy-3-pyridyloxy)propyl)amine Monogalactarate [Example 18] | 22 | 0 |  | 
6 | CNCCCSc1cncc(Br)c1 [Example 6, 3-(5-Bromo-3-pyridylthio))propyl)methylamine Hemigalactarate] |  |  |  | 40
7 | 3-(3-Pyridyloxy)propylamine Hemigalactarate [Example 10] | 0 | 0 |  | 
8 | Methyl(3-(2-methyl(3-pyridyloxy))propyl)amine Hemigalactarate [Example 21] | 0 | 15 |  | 
9 | Methyl(2-(3-pyridyloxy)ethyl)amine Hemigalactarate [Example 8] | 0 | 0 |  | 
10 | Methyl(1-methyl-3-(3-pyridyloxy)propyl)amine Hemigalactarate [Example 26] | 16 | 20 |  | 
11 | Methyl(3-(5-(phenylmethoxy)(3-pyridyloxy))propyl)amine Hemigalactarate [Example 19] | 1 | 3 |  | 
12 | (3-(3-Aminophenoxy)propyl)methylamine Hemigalactarate [Example 30] | 11 | 5 |  | 
13 | CN(C)CCOc1cccnc1 [Example 9, Dimethyl(2-(3-pyridyloxy)ethylamine Hemigalactarate] |  | 0 | 0 | 
14 | Dimethyl(3-(3-pyridyloxy)propyl)amine Hemigalactarate [Example 11] | 8 | 5 |  | 
15 | 4-(3-Pyridyloxy)butylamine Hemigalactarate [Example 12] | 0 | 11 |  | 
16 | Methyl(3-(5-methoxy-3-pyridyloxy)propyl)amine Hemigalactarate [Example 17] | 10 | 5 |  | 
17 | Methyl(3-(3-nitrophenoxy)propyl)amine Hemigalactarate [Example 28] | 10 | 9 |  | 
18 | Ethyl(3-(3-pyridyloxy)propyl)amine Hemigalactarate [Example 22] | 13 | 13 |  | 
19 | Cyclopropyl(3-(3-pyridyloxy)propyl)amine Hemigalactarate [Example 25] | 9 | 10 |  | 
